According to US20250134889A1, “TARGETING IRE1 KINASE AND FMRP FOR PROPHYLAXIS, MANAGEMENT AND TREATMENT OF ATHEROSCLEROSIS” (CEDARS-SINAI MEDICAL CENTER, priority 2022, published 2025):

Legend:
[1] = system: mouse and human macrophages; conditions: cited from earlier work
atherosclerotic plaque = conditions: mice; cited from earlier work
[2] = system: RAW 264.7 mouse macrophages; test: ER stressor treatment of RAW 264.7 macrophages (western blot, qRT-PCR); format: cell-based; conditions: oxLDL 50 μg/ml or TG 300 nM, 6 hours
Method: FIGS. 1A-1K depict FMRP is a new inositol-requiring enzyme-1 (IRE1) kinase substrate. A representative blot is shown from at least n=3 independent experiments. Data are mean±SEM. Unpaired 1-test with Welch's correction or paired 1-test. * P≤0.05, ** P≤0.01, *** P≤0.001. • 1A. STING analysis of published IRE1 interactome proteins in relation to FMRP (Acosta-Alvear et al., 2018). • 1B. HEK293T cells were co-transfected with IRE1 and FMRP plasmids and stimulated with TG (600 nM) or TM (1 mg/ml) for 2 hours. Protein lysates were immunoprecipitated (IP) with anti-IRE1 or IgG (control) antibodies and analyzed by Western blotting using specific antibodies for FMRP and IRE1 (n=3). • 1C. RAW 264.7 mouse macrophages were treated with either oxLDL (50 μg/ml) or TG (300 nM) for 6 hours. Protein lysates were treated with λ Phosphatase (PPase) for 30 minutes and analyzed by western blotting using specific antibodies for pFMRP, FMRP, pIRE1, IRE1 and β-Actin. pFMRP/FMRP fold induction is depicted above the blots (n=6). • 1D. Apoe^−/− mice were fed with chow diet (CD) or western diet (WD) for 16 weeks followed by peritoneal macrophage (PM) isolation. Protein lysates were analyzed by western blotting using specific antibodies for pFMRP, FMRP, pIRE1, IRE1 and β-Actin. pFMRP/FMRP-fold induction is depicted above the blots (n=5). • 1E. Control- or IRE1-siRNA transfected HEK293T cells were stimulated by either PA (500 μM) or TG (600 nM) for 4 hours. Protein lysates were analyzed by western blotting using specific antibodies for pFMRP, FMRP, pIRE1, IRE1 and β-Actin. pFMRP/FMRP fold induction is depicted above the blots (n=4). • 1F. Protein lysates of thioglycolate-elicited PM from IRE1α^−/− and IRE1α^−/− mice (after 16 weeks on WD) were analyzed by western blotting using specific antibodies for pFMRP, FMRP, pIRE1, IRE1 and β-Actin. pFMRP/FMRP fold induction is depicted above the blots (n=4). • 1G. […] Protein lysates were analyzed by western blotting using specific antibodies for pFMRP, FMRP, pIRE1, IRE1 and β-Actin. pFMRP/FMRP fold induction is depicted above the blots (n=4). • 1H. […] Protein lysates of thioglycolate-elicited PM were analyzed by western blotting using antibodies for pFMRP, FMRP, pIRE1, IRE1 and β-Actin. pFMRP/FMRP fold induction is depicted above the blots (n=4). • 1I. […] The IP protein were analyzed by western blotting using specific antibodies for thiophosphate esters (ThioP), IRE1 and FMRP (n=3). • 1J. Purified FMRP and IRE1 kinase (activated) proteins were subjected to kinase assay and analyzed by western blotting using specific antibodies for ThioP, IRE1 and FMRP (n=3) and with LC-MS/MS. […] Protein lysates were analyzed by western blotting using specific antibodies for FMRP, pFMRP, pIRE1 and β-Actin. pFMRP/FMRP fold induction is depicted above the blots (n=3). […]

HEK293T cells = test: ER stress-induced phosphorylation in control- or IRE1-siRNA transfected HEK293T cells (western blot); format: cell-based, human; conditions: PA 500 μM or TG 600 nM, 4 hours, control cells
Method: FIGS. 1A-1K depict FMRP is a new inositol-requiring enzyme-1 (IRE1) kinase substrate. A representative blot is shown from at least n=3 independent experiments. Data are mean±SEM. Unpaired 1-test with Welch's correction or paired 1-test. * P≤0.05, ** P≤0.01, *** P≤0.001. • 1A. STING analysis of published IRE1 interactome proteins in relation to FMRP (Acosta-Alvear et al., 2018). • 1B. HEK293T cells were co-transfected with IRE1 and FMRP plasmids and stimulated with TG (600 nM) or TM (1 mg/ml) for 2 hours. Protein lysates were immunoprecipitated (IP) with anti-IRE1 or IgG (control) antibodies and analyzed by Western blotting using specific antibodies for FMRP and IRE1 (n=3). • 1C. RAW 264.7 mouse macrophages were treated with either oxLDL (50 μg/ml) or TG (300 nM) for 6 hours. Protein lysates were treated with λ Phosphatase (PPase) for 30 minutes and analyzed by western blotting using specific antibodies for pFMRP, FMRP, pIRE1, IRE1 and β-Actin. pFMRP/FMRP fold induction is depicted above the blots (n=6). • 1D. […] Protein lysates were analyzed by western blotting using specific antibodies for pFMRP, FMRP, pIRE1, IRE1 and β-Actin. pFMRP/FMRP-fold induction is depicted above the blots (n=5). • 1E. […] Protein lysates were analyzed by western blotting using specific antibodies for pFMRP, FMRP, pIRE1, IRE1 and β-Actin. pFMRP/FMRP fold induction is depicted above the blots (n=4). • 1F. […]

Row | Compound | lipid-induced inflammasome activation [1] | secretion of mature interleukin-1β (m-IL-1β) and m-IL-18 [1] | atherosclerotic plaque size (atherosclerotic plaque) | hyperlipidemia-induced m-IL-1β and m-IL-18 production (atherosclerotic plaque) | FMRP phosphorylation (S500) [2] | IRE1 autophosphorylation (S724) [2] | levels of FMRP protein [2] | levels of Fmr1 mRNA [2] | phosphorylation of FMRP (HEK293T cells) | phosphorylation of IRE1 (HEK293T cells)
1 | Cc1cc(=O)oc2c(C=O)c(O)ccc12 [4μ8C] | prevented | prevented | reducing | reducing |  |  |  |  |  | 
2 | O=S(=O)(N=Cc1c(O)ccc2ccccc12)c1cccs1 [STF-083010] | prevented | prevented | reducing | reducing |  |  |  |  |  | 
3 | C/C=C(/C)C(=O)O[C@H]1C(C)=C2[C@H]([C@@H]1OC(=O)CCCCCCC)[C@@](C)(OC(C)=O)C[C@H](OC(=O)CCC)[C@@]1(O)[C@H]2OC(=O)[C@@]1(C)O [TG, thapsigargin] |  |  |  |  | significantly induced | significantly induced | did not affect | did not affect | induced | induced
